# Measurements from patent US20040092584A1, “Substance or composition for the treatment of cancer” (priority 2000, published 2004).
# Key:
# HeLa = assay: Growth of cancer cell lines, MTT reactivity (HeLa); assay type: cell-based, human; conditions: mean drug concentration causing 50% cell killing, 3-4 experiments, 72 to 96 h, read-out: IC 50 (μM) HeLa
# Procedure: (§1) The sensitivities of the two cancer cell lines HeLa, which is a sensitive human cervix epitheloid carcinoma cell line, and CoLo 320DM, which is an intrinsically multidrug resistant human colon adeno-carcinoma cell line, to 13 of the complexes of the invention was tested.
# CoLo 320DM = assay: Growth of cancer cell lines, MTT reactivity (CoLo 320DM); assay type: cell-based, human; conditions: mean drug concentration causing 50% cell killing, 3-4 experiments, 72 to 96 h, multidrug resistant line, read-out: IC 50 (μM) CoLo 320DM
# Procedure: as §1
# COR L23/CPR = assay: Growth of cancer cell lines, MTT reactivity (COR L23/CPR); assay type: cell-based, human; conditions: mean drug concentration causing 50% cell killing, 3-4 experiments, 72 to 96 h, platinum resistant variant, read-out: IC 50 (μM) COR L23/CPR
# Procedure: (§2) In these experiments cancer cell lines were cultured in standard tissue culture medium supplemented with 10% fetal calf serum (FCS) at 37° C. In an atmosphere of 5% CO2 in 96 well round bottom microtitre plates. The cultures were treated with either ferrocene-containing β-diketones or their rhodium complexes at varying concentrations for 72 to 96 h, and the extent of cell growth was assayed by MTT [3-(4,5-dimethylthiazol-2yl)-2,5-diphenyl tetrazolium bromide] reactivity, which detects only viable cells.
# COR L23 = assay: Growth of cancer cell lines, MTT reactivity (COR L23); assay type: cell-based, human; conditions: mean drug concentration causing 50% cell killing, 3-4 experiments, 72 to 96 h, read-out: IC 50 (μM) COR L23
# Procedure: as §2
# [1] = test system: PHA-stimulated human lymphocytes; assay: Proliferation of PHA-stimulated human lymphocytes, MTT reactivity; conditions: for IC50: read-out: IC 50 (μM) PHA-stimulated lymphocytes, mean drug concentration causing 50% cell killing, PHA 2.5 μg/ml, 72 h, MTT; for Tumor specificity: activity against tumor cells versus stimulated normal human lymphocytes: tumor cells versus PHA-stimulated lymphocytes (Table 1)
# Procedure: In these experiments suspensions of purified human mononuclear leukocytes were cultured in RPMI medium supplemented with 10% fetal calf serum (FCS) at 37° C. in an atmosphere of 5% CO2 in 96 well round bottom microtitre plates. To some of the wells a mitogen (phytohaemagglutinin, PHA) was added at a concentration of 2.5 μg/ml. The cultures were treated with either ferrocene-containing β-diketones or their rhodium complexes at varying concentrations for 72 h, and the extent of cell growth was assayed by MTT reactivity.
# [2] = test system: Chinese hamster ovary (CHO) cells; assay: Survival of CHO cells after irradiation under hypoxic conditions; assay type: cell-based; conditions: for Mean Inactivation Dose (Gy) / Dose Modifying Factor (DMF): hypoxic conditions; for Mean Inactivation Dose (Gy): 8 MV photon beam; for Dose Modifying Factor (DMF): ratio of mean inactivation doses; for Sensitivity of CHO cells to irradiation under hypoxic conditions (in words): submicromolar concentrations
# Procedure: CHO cells were treated in glass test tubes with non-toxic concentrations (0.39 μM and 0.78 μM) of the two rhodium-ferrocene complexes [Rh(fctca)(cod)] and [Rh(fctfa)(cod)] and irradiated with an 8 MV photon beam in a modular incubator chamber with a 2 cm tissue equivalent wax buildup (8MVmax) under aerobic and hypoxic conditions.
# Neither of the two rhodium complexes tested increased the sensitivity of CHO cells to irradiation in an aerobic environment (results not shown). However, both complexes increased the sensitivity of CHO cells under hypoxic conditions (FIGS. 4 and 5). A dose-modifying factor of 2.9 was obtained under hypoxic conditions for 0.78 μM [Rh(fctfa)(cod)] (Table 2) and 1.9 for 0.39 μM [Rh(fctca)(cod)] (Table 3). The dose-modifying factors were calculated as the ratio of mean inactivation doses [calculated from the respective inactivation parameters obtained from the linear quadratic fit of the cell growth fraction (S)]. Published dose modifying factors (DMFs) measured for cisplatin range from 1.2-2 (Chibber R, Stratford I J, O'Neill P, Sheldon P W, Ahmed I, Lee B. 1985. The interaction between radiation and complexes of cis-Pt (II) and Rh (II): Studied at the molecular level. Int J Radiat Biol 48:513-524; Van De Vaart,. P J M, Klaren, H M, Holland I, Begg A C. 1997. Oral platinum analogue JM216, a radiosensitizer in oxic murine cells. Int J Radiat Biol 72(6):675-683).
# [3] = Anticancer activity of synthesis intermediates; conditions: intermediates of the published synthesis route
# [4] = published values; cited from earlier work
Molecule,IC50 (HeLa) [µM],IC50 (CoLo 320DM) [µM],IC50 (COR L23/CPR) [µM],IC50 (COR L23) [µM],IC50 [1] [µM],further results
"O=CCC(=O)[c-]1cccc1.[Fe+2].c1cc[cH-]c1 [Hfch, ferrocenoylacetaldehyde]",73.4,80.8,,,,
"O=C(CC(=O)C(Cl)(Cl)Cl)[c-]1cccc1.[Fe+2].c1cc[cH-]c1 [Hfctca, ferrocenoyltrichloroacetone]",37.7,28.4,20.1,12.5,67.5,"Radiosensitisation, initial tests (in words) [2]: promising"
C1=C\CC/C=C\CC/1.CC(=O)/C=C(/C)O.[Rh] [Rh(acac)(cod)],97.3,> 100,,,,
"C1=CCCC=CCC1.O=C(C=C([O-])c1ccccc1)[c-]1cccc1.[Fe+2].[Rh+].c1cc[cH-]c1 [Rh(bfcm)(cod), (η^4-1,5-cyclooctadiene)(1-ferrocenyl-3-phenyl-1,3-propanedionato-κ^2O,O′)rhodium(1)]",28.3,87.1,22,22.5,97.2,
"C1=CCCC=CCC1.CC([O-])=CC(=O)[c-]1cccc1.[Fe+2].[Rh+].c1cc[cH-]c1 [Rh(fca)(cod), (η^4-1,5-cyclooctadiene)(1-ferrocenyl-1,3-butanedionato-κ^2O,O′)rhodium(1)]",64.4,56.6,,,,
"C1=CCCC=CCC1.O=C(C=C([O-])C(Cl)(Cl)Cl)[c-]1cccc1.[Fe+2].[Rh+].c1cc[cH-]c1 [Rh(fctca)(cod), (η^4-1,5-cyclooctadiene)(1-ferrocenyl-4,4,4-trichloro-1,3-butanedionato-κ^2O,O′)rhodium(1)]",7.9,3,2,1.3,4.7,Mean Inactivation Dose (Gy) ([2]; 0.39 μM complex): 3.73 Gy; Dose Modifying Factor (DMF) ([2]; 0.39 μM complex): 1.9; Mean Inactivation Dose (Gy) ([2]; 0.78 μM complex): 4.46 Gy; Dose Modifying Factor (DMF) ([2]; 0.78 μM complex): 1.6; Sensitivity of CHO cells to irradiation under hypoxic conditions (in words) [2]: compare favorably with cisplatin
"C1=CCCC=CCC1.O=C(C=C([O-])C(F)(F)F)[c-]1cccc1.[Fe+2].[Rh+].c1cc[cH-]c1 [Rh(fctfa)(cod), (η^4-1,5-cyclooctadiene)(1-ferrocenyl-4,4,4-trifluooro-1,3-butanedionato-κ^2O,O′)rhodium(1)]",12.5,13.4,5.8,8.5,41.6,Tumor specificity: activity against tumor cells versus stimulated normal human lymphocytes [1]: 4-5 times; Mean Inactivation Dose (Gy) ([2]; 0.39 μM complex): 2.41 Gy; Dose Modifying Factor (DMF) ([2]; 0.39 μM complex): 2.6; Mean Inactivation Dose (Gy) ([2]; 0.78 μM complex): 2.19 Gy; Dose Modifying Factor (DMF) ([2]; 0.78 μM complex): 2.9; Sensitivity of CHO cells to irradiation under hypoxic conditions (in words) [2]: compare favorably with cisplatin
[Cl][Rh]([Cl])[Cl] [RhCl3],,,,,,Significant anticancer activity [3]: none
"C1=CCCC=CCC1.O=C(C=C[O-])[c-]1cccc1.[Rh+].[Ru+2].c1cc[cH-]c1 [[Rh(RcH)(cod)], (η^4-1,5-cyclooctadiene)(1-ruthenocenyl-1,3-propanedionato-κ^2O,O′)rhodium(1)]",52,68.8,39.6,34,,
"C1=CCCC=CCC1.O=C(C=C([O-])[c-]1cccc1)c1ccccc1.[Rh+].[Ru+2].c1cc[cH-]c1 [[Rh(brcm)(cod)], (η^4-1,5-cyclooctadiene)(1-ruthenocenyl-3-phenyl-1,3-propanedionato-κ^2O,O′)rhodium(1)]",16.2,20.4,14.1,15.8,,
"C1=CCCC=CCC1.O=C(C=C([O-])[c-]1cccc1)[c-]1cccc1.[Fe+2].[Rh+].[Ru+2].c1cc[cH-]c1.c1cc[cH-]c1 [[Rh(fcrcm)(cod)], (η^4-1,5-cyclooctadiene)(1-ferrocenyl-3-ruthenocenyl-1,3-propanedionato-κ^2O,O′)rhodium(1)]",17.1,29.2,20.1,10.1,,
"C1=CCCC=CCC1.CC(=O)C=C([O-])[c-]1cccc1.[Rh+].[Ru+2].c1cc[cH-]c1 [[Rh(rca)(cod)], (η^4-1,5-cyclooctadiene)(1-ruthenocenyl-1,3-butanedionato-κ^2O,O′)rhodium(1)]",4.86,3,2.74,0.18,,
"C1=CCCC=CCC1.O=C(C=C([O-])C(F)(F)F)[c-]1cccc1.[Rh+].[Ru+2].c1cc[cH-]c1 [[Rh(rctfa)(cod)], (η^4-1,5-cyclooctadiene)(1-ruthenocenyl-4,4,4-trifluooro-1,3-butanedionato-κ^2O,O′)rhodium(1)]",54.7,67.4,48,49.2,,
C1=C\CC/C=C\CC/1.C1=C\CC/C=C\CC/1.[Cl-].[Cl-].[Rh].[Rh] [[RhCl(cod)]2],,,,,,Significant anticancer activity [3]: none
N.N.[Cl][Pt][Cl] [cisplatin],,,,,,Published dose modifying factors (DMFs) [4]: 1.2-2
"(η^4-1,5-cyclooctadiene)(1,3-diferrocenyl-1,3-propanedionato-κ^2O,O′)rhodium(1) [Rh(dfcm)(cod)]",18.4,70.8,30.8,19.9,42.2,
"(η^4-1,5-cyclooctadiene)(1-ferrocenyl-1,3-propanedionato-κ^2O,O′)rhodium(1) [Rh(FcH)(cod)]",62.4,35.4,,,,
acetyl ferrocene,,,,,,Significant anticancer activity [3]: none
benzoylferrocenoylmethane [Hbfcm],54.2,85.1,80.4,66.8,> 100,
diferrocenoylmethane [Hdfcm],54.4,64.3,74.4,75.4,> 100,
ferrocenoylacetone [Hfca],66.6,57.1,,,,
ferrocenoyltrifluoroacetone [Hfctfa],6.8,7.3,6.3,4.5,83.1,"Tumor specificity: activity against tumor cells versus stimulated normal human lymphocytes [1]: eight; Radiosensitisation, initial tests (in words) [2]: promising"
